# Patent US10087187B2, “Imidazopyridazine derivatives as PI3KB inhibitors” (Janssen Pharmaceutica NV, priority 2014, dated 2018)
# Read-outs that look alike come from different tables or passages of the source.
# Key:
# [1] = molecular target: PIK3Cβ_h (Homo sapiens (Human), UniProt P42338); test: KINOMEscan enzyme binding assay, PIK3Cβ; conditions: DiscoveRx
# Description: (§1) Enzyme Binding Assays (KINOMEscan®) Kinase enzyme binding affinities of compounds disclosed herein were determined using the KINOMEscan technology performed by DiscoveRx Corporation, San Diego, Calif., USA (www.kinomescan.com). Table A reports the obtained Kd values (nM), with the Kd being the inhibitor binding constant: […]
# [2] = molecular target: MTOR_h (Homo sapiens (Human), UniProt P42345); test: KINOMEscan enzyme binding assay, MTOR; conditions: DiscoveRx
# Description: (§2) Enzyme Binding Assays (KINOMEscan®) Kinase enzyme binding affinities of compounds disclosed herein were determined using the KINOMEscan technology performed by DiscoveRx Corporation, San Diego, Calif., USA (www.kinomescan.com).
# [3] = molecular target: PIK3Cδ_h (Homo sapiens (Human), UniProt O00329); test: KINOMEscan enzyme binding assay, PIK3Cδ; conditions: DiscoveRx
# PIK3Cδ_h, sequence (O00329 whole entry): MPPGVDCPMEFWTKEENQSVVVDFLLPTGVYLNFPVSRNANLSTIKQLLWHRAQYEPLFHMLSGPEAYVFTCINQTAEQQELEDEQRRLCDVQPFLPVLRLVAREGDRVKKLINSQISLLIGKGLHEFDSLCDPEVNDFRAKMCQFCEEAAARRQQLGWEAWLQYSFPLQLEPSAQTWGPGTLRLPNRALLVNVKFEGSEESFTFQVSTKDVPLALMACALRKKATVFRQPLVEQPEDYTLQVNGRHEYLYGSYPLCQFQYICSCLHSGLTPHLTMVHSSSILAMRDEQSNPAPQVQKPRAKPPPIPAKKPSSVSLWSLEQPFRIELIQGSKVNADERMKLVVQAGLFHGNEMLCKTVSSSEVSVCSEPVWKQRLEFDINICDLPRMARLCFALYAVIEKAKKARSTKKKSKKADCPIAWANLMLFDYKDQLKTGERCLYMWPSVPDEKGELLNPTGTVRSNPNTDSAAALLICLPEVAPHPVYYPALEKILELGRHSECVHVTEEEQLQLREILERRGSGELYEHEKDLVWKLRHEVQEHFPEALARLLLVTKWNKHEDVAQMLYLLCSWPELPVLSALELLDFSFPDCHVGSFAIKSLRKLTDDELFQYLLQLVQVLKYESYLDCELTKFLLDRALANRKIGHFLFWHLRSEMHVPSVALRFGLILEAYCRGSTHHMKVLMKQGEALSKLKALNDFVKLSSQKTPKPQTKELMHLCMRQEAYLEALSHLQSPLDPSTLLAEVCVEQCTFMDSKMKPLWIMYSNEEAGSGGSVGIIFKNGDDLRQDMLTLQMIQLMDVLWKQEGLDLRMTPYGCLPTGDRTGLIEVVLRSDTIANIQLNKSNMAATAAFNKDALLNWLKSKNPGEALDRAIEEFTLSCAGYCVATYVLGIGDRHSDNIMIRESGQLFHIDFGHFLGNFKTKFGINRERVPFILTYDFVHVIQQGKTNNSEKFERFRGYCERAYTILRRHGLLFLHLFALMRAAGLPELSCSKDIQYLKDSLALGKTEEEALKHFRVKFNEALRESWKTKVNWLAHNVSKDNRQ
# Description: as §1
# [4] = molecular target: PIK3Cγ_h (Homo sapiens (Human), UniProt P48736); test: KINOMEscan enzyme binding assay, PIK3Cγ; conditions: DiscoveRx
# PIK3Cγ_h, sequence (P48736 whole entry): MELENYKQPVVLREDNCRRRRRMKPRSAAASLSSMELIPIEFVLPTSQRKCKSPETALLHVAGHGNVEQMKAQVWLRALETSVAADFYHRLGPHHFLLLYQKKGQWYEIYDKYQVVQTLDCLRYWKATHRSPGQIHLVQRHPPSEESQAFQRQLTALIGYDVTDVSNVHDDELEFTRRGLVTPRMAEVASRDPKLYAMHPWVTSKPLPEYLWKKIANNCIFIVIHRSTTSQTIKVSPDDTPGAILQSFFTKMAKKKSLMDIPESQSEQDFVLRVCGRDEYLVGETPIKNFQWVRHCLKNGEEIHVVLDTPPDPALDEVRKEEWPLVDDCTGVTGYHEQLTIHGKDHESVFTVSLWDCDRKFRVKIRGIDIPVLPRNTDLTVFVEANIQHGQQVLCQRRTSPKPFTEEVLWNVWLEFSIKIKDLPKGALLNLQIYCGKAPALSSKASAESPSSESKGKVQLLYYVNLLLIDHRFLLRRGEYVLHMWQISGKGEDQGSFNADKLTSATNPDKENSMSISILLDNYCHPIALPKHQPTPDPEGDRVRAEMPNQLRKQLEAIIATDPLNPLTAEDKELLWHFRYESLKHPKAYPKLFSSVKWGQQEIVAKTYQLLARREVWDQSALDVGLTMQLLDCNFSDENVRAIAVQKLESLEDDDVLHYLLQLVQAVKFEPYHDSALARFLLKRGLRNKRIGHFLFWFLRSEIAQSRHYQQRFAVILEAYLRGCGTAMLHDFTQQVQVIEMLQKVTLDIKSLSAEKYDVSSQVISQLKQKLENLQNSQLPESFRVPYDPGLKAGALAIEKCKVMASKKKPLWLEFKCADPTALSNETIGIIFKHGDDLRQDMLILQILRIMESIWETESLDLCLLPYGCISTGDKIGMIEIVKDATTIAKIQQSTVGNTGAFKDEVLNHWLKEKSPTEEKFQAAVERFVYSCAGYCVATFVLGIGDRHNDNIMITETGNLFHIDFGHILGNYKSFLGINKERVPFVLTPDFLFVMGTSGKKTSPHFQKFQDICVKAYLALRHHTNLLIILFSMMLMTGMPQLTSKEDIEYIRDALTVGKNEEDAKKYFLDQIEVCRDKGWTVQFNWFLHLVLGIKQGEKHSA
# Description: as §2
# [5] = molecular target: PIK3Cα_h (Homo sapiens (Human), UniProt P42336); test: KINOMEscan enzyme binding assay, PIK3Cα; conditions: DiscoveRx
# PIK3Cα_h, sequence (P42336 whole entry): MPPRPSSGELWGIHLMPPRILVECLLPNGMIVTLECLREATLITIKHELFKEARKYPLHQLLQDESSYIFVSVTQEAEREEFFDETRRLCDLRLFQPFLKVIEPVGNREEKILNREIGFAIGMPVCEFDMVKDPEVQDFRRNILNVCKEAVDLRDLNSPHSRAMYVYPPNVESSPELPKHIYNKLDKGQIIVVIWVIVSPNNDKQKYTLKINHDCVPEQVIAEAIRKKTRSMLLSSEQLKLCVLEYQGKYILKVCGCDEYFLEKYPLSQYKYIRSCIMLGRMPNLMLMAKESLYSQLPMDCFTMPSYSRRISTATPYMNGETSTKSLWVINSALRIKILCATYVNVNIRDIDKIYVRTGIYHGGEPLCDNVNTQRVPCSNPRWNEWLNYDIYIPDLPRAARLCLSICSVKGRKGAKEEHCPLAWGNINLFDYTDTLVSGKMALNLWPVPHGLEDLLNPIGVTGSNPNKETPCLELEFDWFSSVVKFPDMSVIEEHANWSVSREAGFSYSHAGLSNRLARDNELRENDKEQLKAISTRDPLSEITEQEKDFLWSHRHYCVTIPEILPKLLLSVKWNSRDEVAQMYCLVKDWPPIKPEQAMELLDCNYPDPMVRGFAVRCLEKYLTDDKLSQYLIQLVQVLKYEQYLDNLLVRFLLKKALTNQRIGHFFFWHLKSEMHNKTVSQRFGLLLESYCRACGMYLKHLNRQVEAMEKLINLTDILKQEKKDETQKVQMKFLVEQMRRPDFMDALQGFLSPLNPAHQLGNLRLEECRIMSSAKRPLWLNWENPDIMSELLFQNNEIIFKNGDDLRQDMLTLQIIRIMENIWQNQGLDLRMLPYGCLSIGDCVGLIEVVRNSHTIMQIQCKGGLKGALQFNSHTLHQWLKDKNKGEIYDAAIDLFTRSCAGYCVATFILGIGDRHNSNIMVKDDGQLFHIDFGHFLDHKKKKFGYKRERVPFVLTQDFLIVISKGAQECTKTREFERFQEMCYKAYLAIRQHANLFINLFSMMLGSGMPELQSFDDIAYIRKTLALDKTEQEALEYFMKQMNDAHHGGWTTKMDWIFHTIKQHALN
# Description: as §2
# [6] = test system: Akt phosphorylated at Thr308 in PC-3 cells; test: Cellular assay: phosphorylation of Akt (Thr308) in PC-3 cells, MSD ELISA; format: cell-based; conditions: 60 min incubation with compound, read-out: IC50 pAkt_Thr308
# Description: (§3) Cellular activity of PI3Kβ inhibitors was determined by quantifying the phosphorylation of Akt in PC-3 cells. Akt phosphorylated at Ser473 and Thr308 were measured using an enzyme-linked immunosorbent assay (ELISA; Meso Scale Discovery (MSD), Gaithersburg, Md.) and specific primary antibodies from MSD.
# (§4) On day 1, PC3 cells (ATCC # […]) were seeded into PerkinElmer MW96 plates at 25.000 cells per well, in 75 μl complete culture medium (DMEM (Dulbecco's Modified Eagle's Medium) high glucose, AQmedia™, D0819, Sigma-Aldrich) containing 10% heat inactivated FCS (Fetal Bovine Serum) and incubated at 37° C., 5% CO2 during 24 hours. On day 2, compound or DMSO (dimethyl sulfoxide) (0.3%) was added and cells were further incubated for 60 min at 37° C., 5% CO2 in a total volume of 100 μl of medium.
# (§5) The phosphoprotein assay was executed according to vendor instructions in the Phospho-Akt (Ser473) Assay Whole Cell Lysate Kit (MSD # K15100D-3) and the Phospho-Akt (Thr308) Assay Whole Cell Lysate Kit (MSD # K151DYD-3) using the lysis, blocking and wash buffer provided.
# (§6) Briefly, at the end of the cell treatment period, media were removed by aspiration and adherent cells were lysed in 50 μl ice-cold lysis buffer. MSD plates are supplied pre-coated with capture antibodies for Phospho-Akt (Ser473 and Thr308). After blocking, lysates from tissue culture plates were added and plates were washed. Then, a solution containing the detection antibody (anti-total Akt conjugated with an electrochemiluminescent compound-MSD Sulfo-tag label) was added. The signals were detected using an MSD SECTOR Imager 6000 and are proportional to the phospho-Akt titres.
# (§7) Data were processed. The percentage of inhibition was plotted against the log concentration of test compounds, and the sigmoidal log concentration-effect curve of best fit was calculated by nonlinear regression analysis. From these concentration-response curves, the IC50 values were calculated. Five concentrations were used for curve fitting.
# [7] = test system: Akt phosphorylated at Ser473 in PC-3 cells; test: Cellular assay: phosphorylation of Akt (Ser473) in PC-3 cells, MSD ELISA; format: cell-based; conditions: 60 min incubation with compound, read-out: IC50 pAkt_S473
# Description: as §3, §4, §5, §6, §7
# PIK3Cβ_h, sequence (P42338 whole entry): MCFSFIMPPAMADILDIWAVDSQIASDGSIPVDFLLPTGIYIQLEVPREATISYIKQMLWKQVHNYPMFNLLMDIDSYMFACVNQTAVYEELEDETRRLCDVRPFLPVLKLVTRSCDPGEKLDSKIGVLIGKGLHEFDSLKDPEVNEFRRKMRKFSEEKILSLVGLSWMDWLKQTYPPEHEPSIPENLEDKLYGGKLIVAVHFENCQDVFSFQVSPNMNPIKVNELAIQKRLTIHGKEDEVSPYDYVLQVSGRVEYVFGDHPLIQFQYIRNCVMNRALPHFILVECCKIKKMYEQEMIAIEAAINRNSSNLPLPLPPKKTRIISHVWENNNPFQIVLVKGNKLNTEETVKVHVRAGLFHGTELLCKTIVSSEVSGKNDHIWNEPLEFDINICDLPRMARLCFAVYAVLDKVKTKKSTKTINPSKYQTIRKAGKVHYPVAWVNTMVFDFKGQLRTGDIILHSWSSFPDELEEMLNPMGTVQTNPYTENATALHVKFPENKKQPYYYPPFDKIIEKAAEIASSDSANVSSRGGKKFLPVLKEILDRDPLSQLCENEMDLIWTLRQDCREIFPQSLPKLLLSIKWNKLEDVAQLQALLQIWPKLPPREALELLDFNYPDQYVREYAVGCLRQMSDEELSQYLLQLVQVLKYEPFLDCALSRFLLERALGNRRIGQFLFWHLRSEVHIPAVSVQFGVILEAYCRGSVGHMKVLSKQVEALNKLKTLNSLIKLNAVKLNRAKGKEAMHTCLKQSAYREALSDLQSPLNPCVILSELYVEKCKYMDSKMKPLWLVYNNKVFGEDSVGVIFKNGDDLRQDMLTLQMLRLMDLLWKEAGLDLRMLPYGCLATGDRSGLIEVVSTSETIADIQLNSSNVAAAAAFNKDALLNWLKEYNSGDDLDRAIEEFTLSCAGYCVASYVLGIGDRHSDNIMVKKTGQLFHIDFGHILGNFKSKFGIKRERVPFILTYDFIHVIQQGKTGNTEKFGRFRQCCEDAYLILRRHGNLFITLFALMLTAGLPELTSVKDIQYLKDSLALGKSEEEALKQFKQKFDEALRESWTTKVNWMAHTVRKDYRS
SMILES,Kd [1],Kd [2],Kd [3],Kd [4],Kd [5],"IC50 ([6]; Homo sapiens, PC-3, 1 h)","IC50 ([7]; Homo sapiens, PC-3, 1 h)",IC50 [6],IC50 [7]
Cc1nc2c(-c3c[nH]cn3)cc(N3CCOCC3)nn2c1Nc1cccc(F)c1C [Compound 50],1.3 nM,776 nM,33 nM,1260 nM,537 nM,38 nM,60 nM,,
Cc1nc2c(N)cc(N3CCOCC3)nn2c1Nc1cccc(C(F)(F)F)c1CN1CC(O)C1 [Compound 52],1.9 nM,10700 nM,40 nM,4790 nM,5750 nM,33 nM,44 nM,,
Cc1nc2c(N)cc(N3CCOCC3)nn2c1Nc1cccc(C(F)(F)F)c1CN1CC2(CCS2(=O)=O)C1 [Compound 53],5 nM,> 30200 nM,73 nM,19600 nM,10000 nM,~87 nM,~176 nM,,
Cc1nc2c(N)cc(N3CCOCC3)nn2c1Nc1cccc(C(F)(F)F)c1CN1CCC(S(C)(=O)=O)CC1 [Compound 54],12 nM,> 30200 nM,490 nM,> 30200 nM,16200 nM,98 nM,200 nM,,
Cc1nc2c(N)cc(N3CCOCC3)nn2c1Nc1cccc(C(F)(F)F)c1CNC(C)CO (stereo not shown) [Compound 55],0.9 nM,> 30200 nM,9 nM,12600 nM,1120 nM,7 nM,10 nM,,
Cc1nc2c(N)cc(N3CCOCC3)nn2c1Nc1cccc(C(F)(F)F)c1CNC(C)CO (stereo not shown) [Compound 56],1.2 nM,> 30200 nM,16 nM,8680 nM,1710 nM,,,~5 nM,~7 nM
Cc1nc2c(-c3c[nH]cn3)cc(N3CCOCC3)nn2c1Nc1cccc(C(F)(F)F)c1CN1CCN(C)CC1 [Compound 57],0.7 nM,6310 nM,9 nM,891 nM,339 nM,26 nM,34 nM,,
Cc1nc2c(N)cc(N3CCOCC3)nn2c1Nc1cccc(C(F)(F)F)c1CN1CCN(C)CC1 [Compound 58],0.4 nM,21400 nM,20 nM,12300 nM,4270 nM,17 nM,21 nM,,
Cc1nc2c(N)cc(N3CCOCC3)nn2c1Nc1cccc(C(F)(F)F)c1C1CCNCC1 [Compound 59],0.1 nM,> 30200 nM,11 nM,3390 nM,6460 nM,~60 nM,85 nM,,
Cc1cccc(Nc2c(C)nc3c(N)cc(N4CCOCC4)nn23)c1C1CCNCC1 [Compound 60],0.2 nM,> 30200 nM,16 nM,9770 nM,7240 nM,~148 nM,219 nM,,
CC(=O)OCc1nc2c(N)cc(N3CCOCC3)nn2c1Cc1cccc(C(F)(F)F)c1C [Compound 61],12 nM,> 30200 nM,1660 nM,> 30200 nM,> 30200 nM,151 nM,105 nM,,
Cc1nc2c(N)cc(N3CCOCC3)nn2c1Nc1cccc(C(F)(F)F)c1CN1CCCC1 [Compound 62],10 nM,> 30200 nM,35 nM,30200 nM,22400 nM,~74 nM,110 nM,,
Cc1nc2c(N)cc(N3CCOCC3)nn2c1Nc1cccc(F)c1CN1CCOCC1 [Compound 63],2.2 nM,3160 nM,42 nM,20000 nM,4170 nM,96 nM,138 nM,,
Cc1nc2c(N)cc(N3CCOCC3)nn2c1Nc1cccc2c1CCNC2 [Compound 64],8 nM,17000 nM,34 nM,> 30200 nM,20900 nM,112 nM,166 nM,,
Cc1c(Cl)cccc1Cc1c(CO)nc2c(-c3c[nH]cn3)cc(N3CCOCC3)nn12 [Compound 67],0.5 nM,186 nM,17 nM,324 nM,195 nM,74 nM,23 nM,,
Cc1nc2c(N)cc(N3CCOCC3)nn2c1Nc1ccccc1CN1CCOCC1 [Compound 69],15 nM,1510 nM,56 nM,24500 nM,5370 nM,151 nM,186 nM,,
Cc1nc2c(N)cc(N3CCOCC3)nn2c1Nc1cccc(F)c1CNC(C)CO (stereo not shown) [Compound 71],6 nM,> 30200 nM,75 nM,> 30200 nM,17000 nM,107 nM,246 nM,,
Cc1nc2c(N)cc(N3CCOCC3)nn2c1Nc1cccc(C(F)(F)F)c1C1CCN(CCO)CC1 [Compound 73],0.3 nM,> 30200 nM,28 nM,24000 nM,3240 nM,~72 nM,89 nM,,
Cc1c(Cc2c(COC(=O)C(C)N)nc3c(N)cc(N4CCOCC4)nn23)cccc1C(F)(F)F (stereo not shown) [Compound 79],0.8 nM,8910 nM,120 nM,17400 nM,8710 nM,,,45 nM,27 nM
Cc1c(Cc2c(COC(=O)C(N)Cc3ccccc3)nc3c(N)cc(N4CCOCC4)nn23)cccc1C(F)(F)F (stereo not shown) [Compound 80],44 nM,> 30200 nM,6030 nM,> 30200 nM,> 30200 nM,~195 nM,209 nM,,
CCC(C)C(N)C(=O)OCc1nc2c(N)cc(N3CCOCC3)nn2c1Cc1cccc(C(F)(F)F)c1C (stereo not shown) [Compound 81],5 nM,> 30200 nM,724 nM,> 30200 nM,26900 nM,282 nM,> 513 nM,,
Cc1c(Cc2c(COC(=O)C(N)C(C)C)nc3c(N)cc(N4CCOCC4)nn23)cccc1C(F)(F)F (stereo not shown) [Compound 82],1.3 nM,25100 nM,263 nM,> 30200 nM,32400 nM,~123 nM,380 nM,,
Cc1c(Cc2c(COC(=O)C(C)N)nc3c(N)cc(N4CCOCC4)nn23)cccc1C(F)(F)F (stereo not shown) [Compound 84],0.5 nM,7940 nM,48 nM,12600 nM,12000 nM,,,98 nM,141 nM
Cc1c(Cc2c(CN)nc3c(N)cc(N4CCOCC4)nn23)cccc1C(F)(F)F [Compound 85],0.7 nM,2680 nM,75 nM,7480 nM,> 23000 nM,86 nM,115 nM,,
Cc1nc2c(C(=O)O)cc(N3CCOCC3)nn2c1Nc1ccccc1N1CCOCC1 [Compound 86],10 nM,19500 nM,117 nM,13200 nM,1780 nM,> 513 nM,> 513 nM,,
Cc1nc2c(C(N)=O)cc(N3CCOCC3)nn2c1Nc1ccccc1N1CCOCC1 [Compound 87],43 nM,5890 nM,219 nM,3630 nM,1200 nM,~224 nM,257 nM,,
Cc1nc2c(-c3ccn[nH]3)cc(N3CCOCC3)nn2c1Nc1ccccc1N1CCOCC1 [Compound 89],22 nM,85 nM,44 nM,851 nM,631 nM,83 nM,115 nM,,
Cc1c(Cc2c(C(O)CN)nc3c(N)cc(N4CCOCC4)nn23)cccc1C(F)(F)F (stereo not shown) [Compound 91],1.1 nM,776 nM,148 nM,8130 nM,8910 nM,> 513 nM,> 513 nM,,
